Test results: ChEMBL document CHEMBL2311273, “Discovery of potent, selective multidrug and toxin extrusion transporter 1 (MATE1, SLC47A1) inhibitors through prescription drug profiling and computational modeling” (J Med Chem, 2013); call rule not given here

Experiments:
[1] = biological target: T1, Solute carrier family 22 member 3 (Homo sapiens, UniProt O75751); test: Inhibition of human OCT3-mediated ASP+ uptake expressed in HEK293 cells after 3 mins by fluorescence assay; assay type: cell-based
T1 sequence (O75751 whole entry): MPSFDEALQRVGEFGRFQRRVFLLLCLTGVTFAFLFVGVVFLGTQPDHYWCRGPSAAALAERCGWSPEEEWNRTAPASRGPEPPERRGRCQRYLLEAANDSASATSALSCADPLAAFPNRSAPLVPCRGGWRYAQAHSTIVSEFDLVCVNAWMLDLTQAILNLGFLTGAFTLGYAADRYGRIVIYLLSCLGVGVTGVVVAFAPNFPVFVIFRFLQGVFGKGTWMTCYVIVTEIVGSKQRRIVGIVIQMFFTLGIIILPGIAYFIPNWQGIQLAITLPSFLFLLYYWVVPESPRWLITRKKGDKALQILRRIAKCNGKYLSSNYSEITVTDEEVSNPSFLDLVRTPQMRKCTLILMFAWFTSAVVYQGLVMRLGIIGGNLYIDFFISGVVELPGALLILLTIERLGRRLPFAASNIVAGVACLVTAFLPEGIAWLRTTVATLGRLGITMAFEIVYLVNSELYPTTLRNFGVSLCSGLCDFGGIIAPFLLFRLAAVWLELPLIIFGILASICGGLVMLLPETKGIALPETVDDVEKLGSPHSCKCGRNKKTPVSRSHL

[2] = biological target: T2, Solute carrier family 22 member 1 (Homo sapiens, UniProt O15245); test: Inhibition of human OCT1-mediated ASP+ uptake expressed in HEK293 cells after 3 mins by fluorescence assay; assay type: cell-based
T2 sequence (O15245 whole entry): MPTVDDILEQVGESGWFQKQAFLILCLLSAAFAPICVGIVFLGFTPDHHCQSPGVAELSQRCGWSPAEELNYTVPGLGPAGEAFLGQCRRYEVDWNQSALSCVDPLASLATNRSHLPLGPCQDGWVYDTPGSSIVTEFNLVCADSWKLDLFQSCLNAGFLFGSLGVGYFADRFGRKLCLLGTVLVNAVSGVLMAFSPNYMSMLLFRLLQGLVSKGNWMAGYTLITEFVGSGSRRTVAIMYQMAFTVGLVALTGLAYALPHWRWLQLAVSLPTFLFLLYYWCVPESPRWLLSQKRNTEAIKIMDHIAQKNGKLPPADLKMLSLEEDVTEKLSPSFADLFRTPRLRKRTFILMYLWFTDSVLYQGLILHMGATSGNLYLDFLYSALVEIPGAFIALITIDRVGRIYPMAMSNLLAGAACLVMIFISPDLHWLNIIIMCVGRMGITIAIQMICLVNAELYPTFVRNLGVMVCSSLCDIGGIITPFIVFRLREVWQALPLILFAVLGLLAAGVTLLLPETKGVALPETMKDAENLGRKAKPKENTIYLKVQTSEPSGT

[3] = biological target: T3, Solute carrier family 22 member 2 (Homo sapiens, UniProt O15244); test: Inhibition of human OCT2-mediated ASP+ uptake expressed in HEK293 cells after 3 mins by fluorescence assay; assay type: cell-based
T3 sequence (O15244 whole entry): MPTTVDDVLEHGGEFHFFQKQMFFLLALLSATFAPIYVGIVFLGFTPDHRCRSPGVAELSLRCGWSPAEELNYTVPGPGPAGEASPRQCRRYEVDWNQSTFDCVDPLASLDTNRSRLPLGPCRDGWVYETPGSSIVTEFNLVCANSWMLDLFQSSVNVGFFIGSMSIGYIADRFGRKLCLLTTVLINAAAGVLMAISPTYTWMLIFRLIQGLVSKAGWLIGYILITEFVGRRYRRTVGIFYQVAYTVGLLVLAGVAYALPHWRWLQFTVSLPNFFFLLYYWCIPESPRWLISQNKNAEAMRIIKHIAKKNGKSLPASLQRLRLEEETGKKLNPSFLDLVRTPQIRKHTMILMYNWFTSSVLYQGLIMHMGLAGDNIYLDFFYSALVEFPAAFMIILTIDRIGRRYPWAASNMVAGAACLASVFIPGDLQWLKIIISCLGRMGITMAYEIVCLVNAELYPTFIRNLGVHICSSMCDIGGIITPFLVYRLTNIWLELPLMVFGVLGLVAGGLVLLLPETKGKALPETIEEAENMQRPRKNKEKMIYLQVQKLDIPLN

[4] = biological target: T4, Multidrug and toxin extrusion protein 2 (Homo sapiens, UniProt Q86VL8); test: Inhibition of human MATE2K-mediated ASP+ uptake expressed in HEK293 cells after 1.5 mins by fluorescence assay; assay type: cell-based
T4 sequence (Q86VL8 whole entry): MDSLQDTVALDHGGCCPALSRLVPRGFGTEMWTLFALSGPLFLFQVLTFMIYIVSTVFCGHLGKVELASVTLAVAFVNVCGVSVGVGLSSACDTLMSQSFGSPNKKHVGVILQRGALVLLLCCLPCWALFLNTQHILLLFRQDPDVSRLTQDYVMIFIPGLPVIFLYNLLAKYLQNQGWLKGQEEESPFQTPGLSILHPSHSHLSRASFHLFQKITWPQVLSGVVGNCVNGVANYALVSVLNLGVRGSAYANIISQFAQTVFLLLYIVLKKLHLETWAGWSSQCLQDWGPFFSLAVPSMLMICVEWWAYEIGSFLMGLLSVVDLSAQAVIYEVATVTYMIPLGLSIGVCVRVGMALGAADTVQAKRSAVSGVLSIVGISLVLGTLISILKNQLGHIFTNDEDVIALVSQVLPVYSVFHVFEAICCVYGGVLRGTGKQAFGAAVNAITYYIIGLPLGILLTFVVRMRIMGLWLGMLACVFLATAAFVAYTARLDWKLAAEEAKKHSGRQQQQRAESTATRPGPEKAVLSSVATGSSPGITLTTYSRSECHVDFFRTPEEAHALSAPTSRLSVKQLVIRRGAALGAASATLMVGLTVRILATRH

[5] = biological target: T5, Multidrug and toxin extrusion protein 1 (Homo sapiens, UniProt Q96FL8); test: (§1) Inhibition of human MATE1-mediated ASP+ uptake expressed in HEK293 cells at 20 uM after 1.5 mins by fluorescence assay; assay type: cell-based; settings: hek293, […], 20 µM
T5 sequence (Q96FL8 whole entry): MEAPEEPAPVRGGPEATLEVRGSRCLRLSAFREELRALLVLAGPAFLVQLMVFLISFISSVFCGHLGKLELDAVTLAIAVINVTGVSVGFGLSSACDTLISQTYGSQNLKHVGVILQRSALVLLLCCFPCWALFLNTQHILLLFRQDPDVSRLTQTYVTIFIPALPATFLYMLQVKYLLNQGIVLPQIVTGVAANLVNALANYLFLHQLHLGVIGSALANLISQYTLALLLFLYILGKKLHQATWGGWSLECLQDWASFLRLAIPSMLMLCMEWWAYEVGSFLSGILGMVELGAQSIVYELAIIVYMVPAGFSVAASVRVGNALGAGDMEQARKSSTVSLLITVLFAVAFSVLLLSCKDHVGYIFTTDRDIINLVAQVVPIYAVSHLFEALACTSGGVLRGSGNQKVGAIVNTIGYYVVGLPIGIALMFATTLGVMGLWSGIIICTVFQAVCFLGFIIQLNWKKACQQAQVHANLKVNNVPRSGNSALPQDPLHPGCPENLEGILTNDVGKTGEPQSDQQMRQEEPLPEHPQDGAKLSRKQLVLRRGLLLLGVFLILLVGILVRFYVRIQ

[6] = biological target: T4, Multidrug and toxin extrusion protein 2; test: Inhibition of human MATE2K-mediated ASP+ uptake expressed in HEK293 cells up to 500 uM after 1.5 mins by fluorescence assay; assay type: cell-based; settings: for INH: human, hek293, […]
[7] = biological target: T6, MATE1 (multidrug and toxin extrusion protein 1) (Homo sapiens, UniProt Q96FL8); test: as §1; assay type: cell-based; settings: HEK293 cells expressing human MATE1, probe ASP+
T6 sequence (Q96FL8 whole entry): T5 sequence (Q96FL8 whole entry)

[8] = biological target: T5, Multidrug and toxin extrusion protein 1; test: Inhibition of human MATE1-mediated ASP+ uptake expressed in HEK293 cells after 1.5 mins by fluorescence assay; assay type: cell-based
[9] = Cmax in iv dosed human; assay type: ADME, organism-based; design: route intravenous; settings: in vivo
[10] = Cmax in human at 40 mg, po after 7 days; assay type: ADME, organism-based; design: dose 40 mg, route oral; settings: in vivo
[11] = biological target: T5, Multidrug and toxin extrusion protein 1; test: Inhibition of human MATE1-mediated [14]-metformin uptake expressed in polarized MDCK2 cells after 5 mins by liquid scintillation counting analysis; assay type: cell-based, MDCK-II
[12] = biological target: T5, Multidrug and toxin extrusion protein 1; test: Inhibition of human MATE1-mediated [14]-metformin uptake expressed in HEK293 cells after 1.5 mins by scintillation counting analysis; assay type: cell-based

Row | SMILES | IC50 [1] | IC50 [2] | IC50 [3] | IC50 [4] | INH [5] | IC50 [8] | other results
1 | CC(C)(C)NC(=O)[C@@H]1CN(Cc2cccnc2)CCN1C[C@@H](O)C[C@@H](Cc1ccccc1)C(=O)N[C@H]1c2ccccc2C[C@H]1O | > 500 µM | 208 µM | 142 µM | – | – | – | –
2 | Oc1c(Cl)cc(Cl)cc1Sc1cc(Cl)cc(Cl)c1O [BITHIONOL] | 5.5 µM | 3.9 µM | 1.9 µM | 6.6 µM | 87% | – | –
3 | COc1ccccc1OCCNCC(O)COc1cccc2[nH]c3ccccc3c12 (configuration not stated) [CARVEDILOL] | – | – | 7.5 µM | – | – | 92.4 µM | INH [6]: Not Active; inhibition at […], 20 µM [7]: 21%
4 | [H]/N=C(\N/C(=N/[H])NCCCCCCNC(=N)NC(=N)Nc1ccc(Cl)cc1)Nc1ccc(Cl)cc1 [CHLORHEXIDINE] | 0.41 µM | 0.21 µM | 0.4 µM | 0.5 µM | 86% | 0.7 µM | –
5 | CN1C[C@H](C(=O)N[C@]2(C)O[C@@]3(O)[C@@H]4CCCN4C(=O)[C@H](Cc4ccccc4)N3C2=O)C[C@@H]2c3cccc4[nH]cc(c34)C[C@H]21 [DIHYDROERGOTAMINE] | – | – | 49.9 µM | 12.6 µM | 72% | 2.8 µM | –
6 | NC1=NCC2c3ccccc3Cc3ccccc3N12 (configuration not stated) [EPINASTINE] | – | – | 4.3 µM | 29.8 µM | 97% | 1.1 µM | –
7 | C#C[C@]1(O)CC[C@H]2[C@@H]3CCc4cc(O)ccc4[C@H]3CC[C@@]21C [ETHINYL ESTRADIOL] | – | – | 2.2 µM | 20.2 µM | 60% | 21.1 µM | –
8 | NC(N)=Nc1nc(CSCCC(N)=NS(N)(=O)=O)cs1 [FAMOTIDINE] | 10.7 µM | > 300 µM | 36.1 µM | 36.2 µM | – | 0.76 µM | –
9 | CCc1c2c(nc3ccc(OC(=O)N4CCC(N5CCCCC5)CC4)cc13)-c1cc3c(c(=O)n1C2)COC(=O)[C@]3(O)CC [IRINOTECAN] | 74.6 µM | 20.8 µM | 2.7 µM | – | – | – | inhibition at […], 20 µM [7]: 49%
10 | O=C1c2c(O)ccc(O)c2C(=O)c2c(NCCNCCO)ccc(NCCNCCO)c21 [MITOXANTRONE] | 60.5 µM | 43.9 µM | 73.3 µM | – | – | – | –
11 | Cn1c(NCCN(CCO)CCCc2ccc([N+](=O)[O-])cc2)cc(=O)n(C)c1=O [NIFEKALANT] | 146 µM | > 300 µM | 10.3 µM | – | – | – | Cmax [9]: 3.43 µM
12 | COc1ccc2c(c1OC)C(=O)O[C@@H]2[C@H]1c2c(cc3c(c2OC)OCO3)CCN1C [NOSCAPINE] | – | – | 2.6 µM | – | – | – | INH [6]: Not Active; inhibition at […], 20 µM [7]: 13.4%
13 | Cc1nccn1CC1CCc2c(c3ccccc3n2C)C1=O (configuration not stated) [ONDANSETRON] | 17.4 µM | > 300 µM | – | – | – | – | –
14 | COc1ccnc(C[S+]([O-])c2nc3ccc(OC(F)F)cc3[nH]2)c1OC (configuration not stated) [PANTOPRAZOLE] | 137 µM | > 500 µM | 1.5 µM | > 500 µM | – | 43.2 µM | Cmax [10]: 5.45 µM; IC50 [11]: 2.8 µM; IC50 [12]: 2.8 µM; IC50 [6]: 43.2 µM
15 | N=C(N)c1ccc(OCCCCCOc2ccc(C(=N)N)cc2)cc1 [PENTAMIDINE] | 9.5 µM | 22.1 µM | 1.2 µM | – | – | – | –
16 | CC(N)C12CC3CC(CC(C3)C1)C2 (configuration not stated) [RIMANTADINE] | – | – | 4.4 µM | 288 µM | 74% | 7.3 µM | –
17 | CC[C@@]1(O)C(=O)OCc2c1cc1n(c2=O)Cc2cc3c(CN(C)C)c(O)ccc3nc2-1 [TOPOTECAN] | – | – | 61 µM | 8.6 µM | 50% | 1.3 µM | –
18 | COc1cc2c3cc1Oc1cc(ccc1O)C[C@@H]1c4c(cc(OC)c(O)c4Oc4ccc(cc4)C[C@@H]3N(C)CC2)CC[N+]1(C)C [TUBOCURARINE] | – | – | 78.8 µM | 55.5 µM | 95% | 9.4 µM | –
19 | CC(=O)O[C@H]1C[C@@H]2CC[C@@H]3[C@H](CC[C@@]4(C)[C@H]3C[C@H]([N+]3(C)CCCCC3)[C@@H]4OC(C)=O)[C@@]2(C)C[C@@H]1N1CCCCC1.[Br-] [VECURONIUM BROMIDE] | – | – | 3.5 µM | 25.2 µM | 85% | 1.9 µM | –
20 | COc1cc(C(=O)NS(=O)(=O)c2ccccc2C)ccc1Cc1cn(C)c2ccc(NC(=O)OC3CCCC3)cc12 [ZAFIRLUKAST] | – | – | 9.7 µM | 7.6 µM | 52% | – | –
